Measurements: patent publication US20160257697A1, “THIOPHENE-SUBSTITUTED TETRACYCLIC COMPOUNDS AND METHODS OFUSE THEREOF FOR THE TREATMENT OF VIRAL DISEASES” (priority 2013, published 2016)
Where two headings read alike, the source gives them in different places.

How the values were obtained:
Test in all cases: microbe, parasite or virus in culture
Format in all cases: cell-based, Hepatitis C virus (HCV)
HCV replicon 1AY93H = settings: Replicon Assay A
How it was run: (§1)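 Cells seeded 2000/well + compound; 0.5% DMSO, 5% FBS; harvest day 3, lyse. Multiplex TaqMan RT-PCR for replicon (Neo probe) and cyclophilin RNA; amounts from Ct vs log(ng) linear regression of replicon total RNA standards.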

HCV replicon 1A = settings: Replicon Assay A
How it was run: as §1

HCV replicon 2B = settings: Replicon Assay A
How it was run: as §1

HCV replicon 1AQ30D = settings: Replicon Assay B
HCV replicon 1B = settings: Replicon Assay B
[1] = Hepatitis C virus, read-out: 1A Y93H IC50 (nM), replicon 1AY93H
[2] = Hepatitis C virus, read-out: 2B IC50 (nM), replicon 2B
[3] = Hepatitis C virus, read-out: 1A Q30D IC50 (nM), replicon 1AQ30D
[4] = read-out: 1A Y93H IC50, replicon 1AY93H
[5] = read-out: 1A Q30D IC50, replicon 1AQ30D
[6] = read-out: 1A Y93H IC50, HCV replicon 1A Y93H
[7] = read-out: 2B IC50, HCV replicon 2B
[8] = Hepatitis C virus, read-out: 1A Q30D IC50, HCV replicon 1A Q30D
[9] = Hepatitis C virus, HCV replicon 1B

Structure (SMILES) | IC50 (HCV replicon 1A; Hepatitis C virus, replicon 1A) [pM] | IC50 (HCV replicon 1AQ30D; [3]) [nM] | IC50 (HCV replicon 1B; Hepatitis C virus, replicon 1B) [pM] | IC50 (HCV replicon 1AY93H; [4]) [nM] | IC50 (HCV replicon 2B; read-out: 2B IC50, replicon 2B) [nM] | IC50 (HCV replicon 1AQ30D; [5]) [nM] | IC50 (HCV replicon 1AY93H; [6]) [nM] | IC50 (HCV replicon 1A; HCV replicon 1A) [pM] | IC50 (HCV replicon 2B; [7]) [nM] | IC50 (HCV replicon 1AQ30D; [8]) [nM] | other results
COC(=O)NC(C(=O)N1CCC[C@H]1c1ncc(-c2ccc3c(c2)cc2n3C(c3ccc(C4CC4)s3)Oc3cc(-c4cnc([C@@H]5CCCN5C(=O)[C@@H](NC(=O)OC)C(C)C)[nH]4)cc(F)c3-2)[nH]1)C1(F)CCOCC1 (single isomer, unassigned) [Compound 364] | 2 | 0.498 | 2.3 |  |  |  |  |  |  |  | IC50 (HCV replicon 1AY93H; [1]): 0.0869 nM; IC50 (HCV replicon 2B; [2]): 0.0872 nM
CCc1ccc(C2Oc3cc(-c4cnc([C@@H]5CCCN5C(=O)[C@@H](NC(=O)OC)C(C)C)[nH]4)cc(F)c3-c3cc4cc(-c5cnc([C@@H]6CCCN6C(=O)[C@@H](NC(=O)OC)C6CCOCC6)[nH]5)ccc4n32)s1 (single isomer, unassigned) [Compound 336] | 2.2 |  | 1.1 | 0.062 | 0.128 | 1.5 |  |  |  |  | 
COC(=O)NC(C(=O)N1CCC[C@H]1c1ncc(-c2cc(F)c3c(c2)OC(c2ccc(C4CC4)s2)n2c-3cc3cc(-c4cnc([C@@H]5CCCN5C(=O)[C@@H](NC(=O)OC)C(C)C)[nH]4)ccc32)[nH]1)C1CCOC(C)(C)C1 (single isomer, unassigned) [Compound 214] |  |  | 2.2 | 0.009 | 0.005 | 0.032 |  |  |  |  | IC50 (HCV replicon 1A; replicon 1A): 3 pM
COC(=O)N[C@H](C(=O)N1CCC[C@H]1c1ncc(-c2cc(F)c3c(c2)OC(c2cc4c(s2)CCC4)n2c-3cc3cc(-c4cnc([C@@H]5C[C@H]6C[C@H]6N5C(=O)[C@@H](NC(=O)OC)C5CCOCC5)[nH]4)ccc32)[nH]1)C(C)C (single isomer, unassigned) [Compound 541] |  |  |  |  |  |  | 2.19 | 14.8 | 0.096 | 0.303 | IC50 (HCV replicon 1B; HCV replicon 1B): 23.7 pM
COC(=O)NC(C(=O)N1CCC[C@H]1c1ncc(-c2ccc3c(c2)cc2n3C(c3ccc(C4CC4)s3)Oc3cc(-c4cnc([C@@H]5CCCN5C(=O)[C@@H](NC(=O)OC)C(C)C)[nH]4)cc(F)c3-2)[nH]1)C1CN(C(=O)C2CC2)C1 (single isomer, unassigned) [Compound 267] |  | 0.08 | 3.9 | 0.013 | 0.012 |  |  |  |  |  | IC50 (HCV replicon 1A; replicon 1A): 3.5 pM
CCc1ccc(C2Oc3cc(-c4cnc([C@@H]5CCCN5C(=O)[C@@H](NC(=O)OC)C(C)C)[nH]4)cc(C)c3-c3cc4cc(-c5cnc([C@@H]6CCCN6C(=O)C(NC(=O)OC)C6C[C@@H](C)O[C@H](C)C6)[nH]5)ccc4n32)s1 (single isomer, unassigned) [Compound 545] |  |  |  |  |  |  | 0.024 | 3.55 | 0.00645 | 0.11 | IC50 (HCV replicon 1B; [9]): 5.98 pM
COC(=O)NC(C(=O)N1[C@@H]2C[C@@H]2C[C@H]1c1ncc(-c2ccc3c(c2)cc2n3C(c3ccc(C4CC4)s3)Oc3cc(-c4cnc([C@@H]5CCCN5C(=O)[C@@H](NC(=O)OC)C(C)C)[nH]4)cc(F)c3-2)[nH]1)C(C)(C)F (some centres unmarked) [Compound 93] | 3 | 0.053 | 2.5 |  |  |  |  |  |  |  | IC50 (HCV replicon 1AY93H; [1]): 0.007 nM; IC50 (HCV replicon 2B; [2]): 0.054 nM
CCc1ccc(C2Oc3cc(-c4cnc([C@@H]5CCCN5C(=O)[C@@H](NC(=O)OC)C(C)C)[nH]4)ccc3-c3c(F)c4cc(-c5cnc([C@@H]6CCCN6C(=O)[C@@H](NC(=O)OC)C(C)C)[nH]5)ccc4n32)s1 (single isomer, unassigned) [Compound 602] |  |  |  |  |  |  | 0.066 | 1 | 0.143 | 0.597 | IC50 (HCV replicon 1B; [9]): 1.7 pM
COC(=O)NC(C(=O)N1CCC[C@H]1c1ncc(-c2ccc3c(c2)cc2n3C(c3ccc(C4CCCC4)s3)Oc3cc(-c4cnc([C@@H]5CCCN5C(=O)[C@@H](NC(=O)OC)C(C)C)[nH]4)cc(F)c3-2)[nH]1)C1C[C@@H](C)O[C@@H](C)C1 (single isomer, unassigned) [Compound 657] |  |  |  |  |  |  | 0.105 | 2.5 | 0.0941 |  | IC50 (HCV replicon 1AQ30D; read-out: 1A Q30D IC50, HCV replicon 1A Q30D): 1.14 nM; IC50 (HCV replicon 1B; HCV replicon 1B): 3.7 pM
COC(=O)N[C@H](C(=O)N1CCC[C@H]1c1ncc(-c2cc(F)c3c(c2)OC(c2ccc(C4CC4)s2)n2c-3c(F)c3cc(-c4cnc([C@@H]5CCCC5C(=O)[C@@H](NC(=O)OC)C5CCOCC5)[nH]4)ccc32)[nH]1)C(C)C (single isomer, unassigned) [Compound 362] | 1.1 |  | 1.8 | 0.0775 | 0.0486 | 0.981 |  |  |  |  | 
